Source: ChEMBL document CHEMBL1201862, “PubChem BioAssay data set” (2004)
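Values below derive from 48-hour exposures of cells grown in 96-well plates, with endpoints linearly interpolated between the two concentrations bracketing the appropriate inhibition level. Here, GI50 denotes the concentration required for 50% inhibition of growth.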 Calls of active or inactive are those of the source. Cut-off read from the data, not from the text of the source: active = GI50 up to about 1.1 µM and inactive = higher.

What was measured:
Experiment in all cases: inhibition of tumour cell growth, NCI panel, 48 h
ACHN = system: ACHN
COLO 205 = system: COLO 205
DU-145 = system: DU-145
EKVX = system: EKVX
HCT-15 = system: HCT-15
HOP-62 = system: HOP-62
K562 = system: K562
MCF7 = system: MCF7
MDA-N = system: MDA-N
MOLT-4 = system: MOLT-4
Malme-3M = system: Malme-3M
NCI-H460 = system: NCI-H460
NCI-H522 = system: NCI-H522
NCI/ADR-RES = system: NCI/ADR-RES
SF-268 = system: SF-268
SK-MEL-2 = system: SK-MEL-2
SN12C = system: SN12C
U-251 = system: U-251
UO-31 = system: UO-31

| SMILES | GI50 (ACHN) | GI50 (COLO 205) | GI50 (DU-145) | GI50 (EKVX) | GI50 (HCT-15) | GI50 (HOP-62) | GI50 (K562) | GI50 (MCF7) | GI50 (MDA-N) | GI50 (MOLT-4) | GI50 (Malme-3M) | GI50 (NCI-H460) | GI50 (NCI-H522) | GI50 (NCI/ADR-RES) | GI50 (SF-268) | GI50 (SK-MEL-2) | GI50 (SN12C) | GI50 (U-251) | GI50 (UO-31) |
| --- | --- | --- | --- | --- | --- | --- | --- | --- | --- | --- | --- | --- | --- | --- | --- | --- | --- | --- | --- |
| O=C(c1ccc(Cl)cc1)N1N=C(c2ccc(Cl)cc2)CC1(O)c1cc(F)c(Cl)cc1Cl (stereo not given) | 21.3 µM (inactive) | 18.4 µM (inactive) | 27.3 µM (inactive) | 8.59 µM (inactive) | 15.5 µM | 32.1 µM (inactive) | 7.24 µM (inactive) | 7.14 µM (inactive) | 13.6 µM (inactive) | 9.25 µM (inactive) | 30.6 µM (inactive) | 21.7 µM (inactive) | 12.9 µM (inactive) | 18.4 µM (inactive) | 47.4 µM (inactive) | 17 µM (inactive) | 14.5 µM (inactive) | 15.5 µM (inactive) | 9.06 µM (inactive) |
| Cc1c2oc3c(C)cc(F)c(C(=O)NC4C(=O)NC(C(C)C)C(=O)N5CCCC5C(=O)N(C)CC(=O)N(C)C(C(C)C)C(=O)OC4C)c3nc-2c(C(=O)NC2C(=O)NC(C(C)C)C(=O)N3CCCC3C(=O)N(C)CC(=O)N(C)C(C(C)C)C(=O)OC2C)c(N)c1=O (stereo not given) | 0.0832 µM (active) | 0.0267 µM (active) | 0.115 µM (active) | 1.75 µM (inactive) | 0.0805 µM | 0.107 µM (active) | < 0.001 µM (active) | < 0.001 µM (active) | 0.0024 µM (active) | < 0.001 µM (active) | 0.00149 µM (active) | 0.00179 µM (active) | 0.00188 µM (active) | 4.65 µM (inactive) | < 0.001 µM (active) | 0.01 µM (active) | 0.0303 µM (active) | 0.00588 µM (active) | 0.521 µM (active) |
| O=C(/C=C/c1csc(-c2ccccc2)n1)NCc1ccc(C(=O)NCCc2ccccc2)cc1 | 19.3 µM (inactive) | 42.1 µM (inactive) | 88.5 µM (inactive) | 93.5 µM (inactive) | 93.5 µM | 2.64 µM (inactive) | > 100 µM (inactive) | 72.3 µM (inactive) | > 100 µM (inactive) | > 100 µM (inactive) | 24.3 µM (inactive) | 55.3 µM (inactive) | 34.6 µM (inactive) | 11.6 µM (inactive) | 5.94 µM (inactive) | 32 µM (inactive) | 44.9 µM (inactive) | 5.16 µM (inactive) | 48.1 µM (inactive) |
| O=c1sc2c(s1)-c1sc(=O)sc1SS2 | > 100 µM (inactive) | > 46 µM (inactive) | > 54 µM (inactive) | > 76.2 µM (inactive) | 18.7 µM | > 100 µM (inactive) | 55.5 µM (inactive) | > 100 µM (inactive) | > 100 µM (inactive) | > 61 µM (inactive) | > 100 µM (inactive) | > 100 µM (inactive) | > 91.4 µM (inactive) | 26.7 µM (inactive) | > 100 µM (inactive) | > 100 µM (inactive) | > 100 µM (inactive) | > 31.6 µM (inactive) | > 100 µM (inactive) |
| CC[N+](C)(CC)CCC(O)(c1ccccc1)c1ccccc1 | > 100 µM (inactive) | > 100 µM (inactive) | > 100 µM (inactive) | > 100 µM (inactive) | > 100 µM | > 100 µM (inactive) | > 100 µM (inactive) | > 100 µM (inactive) | > 100 µM (inactive) | > 100 µM (inactive) | > 100 µM (inactive) | > 100 µM (inactive) | > 100 µM (inactive) | > 100 µM (inactive) | > 100 µM (inactive) | > 100 µM (inactive) | > 100 µM (inactive) | > 100 µM (inactive) | > 100 µM (inactive) |
| COc1ccc2c(c1O)[C@@]13CCCC=C1[C@@H](C2)N(C)CC3 | > 100 µM (inactive) | 97.1 µM (inactive) | > 100 µM (inactive) | > 100 µM (inactive) | > 100 µM | > 100 µM (inactive) | 21.3 µM (inactive) | 81.5 µM (inactive) | 61.5 µM (inactive) | 44.3 µM (inactive) | 1.75 µM (inactive) | > 100 µM (inactive) | 25.2 µM (inactive) | 33 µM (inactive) | > 100 µM (inactive) | 36.7 µM (inactive) | > 100 µM (inactive) | > 100 µM (inactive) | 39 µM (inactive) |
| COc1ccc2c(c1C)C(=O)C(O)(CC=C(C)C)O2 (stereo not given) | > 100 µM (inactive) | > 100 µM (inactive) | > 100 µM (inactive) | > 100 µM (inactive) | > 100 µM | > 100 µM (inactive) | > 100 µM (inactive) | > 100 µM (inactive) | > 100 µM (inactive) | > 100 µM (inactive) | > 100 µM (inactive) | > 100 µM (inactive) | > 100 µM (inactive) | > 100 µM (inactive) | > 100 µM (inactive) | > 100 µM (inactive) | > 100 µM (inactive) | > 100 µM (inactive) | > 100 µM (inactive) |
| O=C1Nc2ccccc2/C1=N/NC(=S)NCc1ccccn1 | 0.2 µM (active) | < 0.01 µM (active) | 0.698 µM (active) | 0.294 µM (active) | 0.0326 µM | 0.483 µM (active) | < 0.01 µM (active) | < 0.01 µM (active) | 0.975 µM (active) | < 0.01 µM (active) | 2.29 µM (inactive) | 0.172 µM (active) | 0.17 µM (active) | 0.418 µM (active) | 0.136 µM (active) | 2.9 µM (inactive) | 1.27 µM (inactive) | 0.0724 µM (active) | 0.373 µM (active) |
| COC(=O)C(CCC(=O)CCl)N1C(=O)c2ccccc2C1=O (stereo not given) | 13.3 µM (inactive) | 15.6 µM (inactive) | 16.9 µM (inactive) | 19.9 µM (inactive) | 4.25 µM | 16.1 µM (inactive) | 2.38 µM (inactive) | 4.57 µM (inactive) | 7.43 µM (inactive) | 2.38 µM (inactive) | 4.57 µM (inactive) | 12.2 µM (inactive) | 1.73 µM (inactive) | 9.42 µM (inactive) | 9.42 µM (inactive) | 6.9 µM (inactive) | 10.5 µM (inactive) | 14.4 µM (inactive) | 14.4 µM (inactive) |
| Cc1cc(CN(Cc2ccccc2)Cc2nc3ccccc3[nH]2)c(O)c(CN(Cc2nc3ccccc3[nH]2)Cc2nc3ccccc3[nH]2)c1 | 3.38 µM (inactive) | 19.8 µM (inactive) | 23.4 µM (inactive) | 11.4 µM (inactive) | 2.81 µM | 5.26 µM (inactive) | 2.63 µM (inactive) | 2.66 µM (inactive) | 6.43 µM (inactive) | 4.26 µM (inactive) | 24.9 µM (inactive) | 3.94 µM (inactive) | 16.2 µM (inactive) | 5.06 µM (inactive) | 8.11 µM (inactive) | 10.8 µM (inactive) | 8.41 µM (inactive) | 13 µM (inactive) | 7.03 µM (inactive) |
| Cc1ccc(-n2c(Cn3nnc(-c4cccnc4)n3)nn(C3OC(COC(=O)c4ccccc4)C(OC(=O)c4ccccc4)C3OC(=O)c3ccccc3)c2=S)cc1 (stereo not given) | > 100 µM (inactive) | > 100 µM (inactive) | > 100 µM (inactive) | > 100 µM (inactive) | > 100 µM | > 100 µM (inactive) | > 100 µM (inactive) | > 100 µM (inactive) | > 100 µM (inactive) | > 100 µM (inactive) | 38.4 µM (inactive) | > 100 µM (inactive) | > 100 µM (inactive) | > 100 µM (inactive) | > 100 µM (inactive) | > 100 µM (inactive) | > 100 µM (inactive) | > 100 µM (inactive) | > 100 µM (inactive) |
| CCOC1=C(c2ccccc2)N2CCCCC2O1 (stereo not given) | 4.68 µM (inactive) | 2.22 µM (inactive) | 4.19 µM (inactive) | 5.19 µM (inactive) | 29 µM | 4.6 µM (inactive) | 2.03 µM (inactive) | 3.76 µM (inactive) | 4.03 µM (inactive) | 4.27 µM (inactive) | 5.7 µM (inactive) | 3.39 µM (inactive) | 3.38 µM (inactive) | 23.7 µM (inactive) | 4.34 µM (inactive) | 2.25 µM (inactive) | 8.85 µM (inactive) | 3.35 µM (inactive) | 19.8 µM (inactive) |
| CN(C)CCNC(=O)c1cc(-c2nccn2C)nc2ccccc12 | 58.3 µM (inactive) | > 100 µM (inactive) | > 100 µM (inactive) | > 100 µM (inactive) | 66.1 µM | 50.8 µM (inactive) | > 100 µM (inactive) | 70.1 µM (inactive) | > 100 µM (inactive) | > 100 µM (inactive) | > 100 µM (inactive) | 34.4 µM (inactive) | > 100 µM (inactive) | > 100 µM (inactive) | > 100 µM (inactive) | > 100 µM (inactive) | > 100 µM (inactive) | > 100 µM (inactive) | 52.8 µM (inactive) |
| C[N+](C)(C)C(Cc1c[nH]c(=S)[nH]1)C(=O)O (stereo not given) | > 100 µM (inactive) | > 100 µM (inactive) | > 100 µM (inactive) | > 100 µM (inactive) | > 100 µM | > 100 µM (inactive) | > 100 µM (inactive) | > 100 µM (inactive) | > 100 µM (inactive) | > 100 µM (inactive) | > 100 µM (inactive) | > 100 µM (inactive) | > 100 µM (inactive) | > 100 µM (inactive) | > 100 µM (inactive) | > 100 µM (inactive) | > 100 µM (inactive) | > 100 µM (inactive) | > 100 µM (inactive) |
| COc1c(Br)cc(/C=C(\C#N)c2ccccn2)cc1Br | > 100 µM (inactive) | > 100 µM (inactive) | 37.8 µM (inactive) | 1.26 µM (inactive) | 84.9 µM | 22.2 µM (inactive) | > 100 µM (inactive) | 26.1 µM (inactive) | > 10 µM (inactive) | > 100 µM (inactive) | 44.7 µM (inactive) | > 100 µM (inactive) | > 100 µM (inactive) | 39.4 µM (inactive) | 23.2 µM (inactive) | 13.8 µM (inactive) | > 100 µM (inactive) | 13.3 µM (inactive) | > 100 µM (inactive) |
